Test results taken from patent publication US8361758B2, “Microorganism of Corynebacterium genus having resistance to kanamycin and enhanced L-lysine productivity and method of producing L-lysine using the same” (priority 2005, dated 2013).

Assays:
[1] = test system: Corynebacterium glutamicum KFCC10881-CJP5103; assay: Resistance to kanamycin: growth on minimal agar plate medium containing kanamycin; type: cell-based; conditions: Kanamycin 5 mg/l, cultured four days, kanamycin-resistant mutant
Description: (§1) Next, an experiment of resistance to kanamycin with respect to the selected mutant resistant to kanamycin, Corynebacterium glutamicum KFCC10881-CJP5103, and the parent bacteria was performed. First, the two microorganisms were cultured in a Luria Bertani (LB) liquid medium for 16 hours, and then the cells were washed using sterile normal saline two times. Then, the washed cells were properly diluted and the resulting product was cultured in a minimal agar plate medium containing kanamycin having a concentration of 5 mg/l for four days to measure productivity of each microorganism. A composition of the minimal agar plate medium is the same as follows: 10 g of glucose, 2 g of (NH4)2SO4, 2 g of urea, 1.0 g of KH2PO4, 3.0 g of K2HPO4, 0.5 g of MgSO4.7H2O, 10 mg of FeSO4.7H2O, 10 mg of MnSO4.7H2O, 100 μg of biotin, 100 lag of thiamine. HCl, 100 μg of CaCl2.2H2O, 80 μg of Na2B4O7.10H2O, 40 μg of (NH4)6MoO27.4H2O, 10 μg of ZnSO4.7 H2O, 300 μg of CuSO4.7 H2O, 10 μg of MnCl2.4H2O, 1 mg of FeCl3.6H2O, 20 g of agar, 0.1 g of L-leucine if necessary, 0.1 g of L-threonine if necessary, 0.1 g of L-methionine if necessary, per 1 L of distilled water (pH 7.0).
(§2) The results of measuring productivity of the mutant and the parent bacteria in a kanamycin-containing medium are shown in Table. 1.

[2] = test system: Corynebacterium glutamicum KFCC10881; assay: as above; type: cell-based; conditions: Kanamycin 5 mg/l, cultured four days, parent strain
Description: as §1, §2

Structure (SMILES): NC[C@H]1O[C@H](O[C@H]2[C@H](O)[C@@H](O[C@H]3O[C@H](CO)[C@@H](O)[C@H](N)[C@H]3O)[C@H](N)C[C@@H]2N)[C@H](O)[C@@H](O)[C@@H]1O [Kanamycin, kanamycin]
- Growth of KFCC-10881-CJP5103 in kanamycin-containing medium [1]: +++
- Growth of KFCC-10881 in kanamycin-containing medium [2]: −
